How the values were obtained:
[1] = system: p-ERK1/2, p-p38, p-Akt; test: Immunoblotting of MAPK and AKT phosphorylation in PBMC; assay type: cell-based, human
Method: Proteins of interest were analyzed by immunoblotting as described before ([36]). Densitometric analysis was done to quantify the immunoblots using Quantity One software (Bio-Rad, Munich, Germany) and normalized against β-actin.
Figure 4 AITC mediates MAPK down-stream signaling in dependence of the TAS2R38 haplotype. (A, B) PBMC were treated with test compounds for the indicated time points and pellets were collected for protein expression analysis. Representative immunoblots are given. Densitometric analysis was done to quantify the immunoblots using Quantity One software (Bio-Rad, Munich, Germany) and normalized against β-actin, which was used as loading control. The graphs show phosphorylated ERK1/2, p-38 or Akt, protein levels relative to control as quantified by pixel densitometry. Bars are mean + SD; *p < 0.05, **p < 0.01 (n ≥ 2). Significance of difference was calculated relative to the corresponding solvent control determined by one-way ANOVA (SC, 0.01% DMSO).
Figure 5 In bacterial LPS stimulated PBMC, AITC triggers MAPK activation and TNF-α inhibition in dependence of the TAS2R38 genotype. PBMC were exposed to AITC or 0.01% DMSO (SC) together with 100 pg/mL LPS. (A) Representative immunoblots are given. Densitometric analysis was done to quantify the immunoblots using Quantity One software (Bio-Rad, Munich, Germany) and normalized against β-actin, which was used as loading control. (B, C) Cytokine secretion at 3 and 24 h was analyzed using ELISA kits. (D) Time kinetic of TNF-α mRNA expression. Results are means + SD and given as fold of the solvent control. Results were calculated relative to the corresponding solvent control (SC, 0.01% DMSO). Significance of difference was determined compared to the respective SC by one-way ANOVA, *p < 0.05, **p < 0.01.

[2] = system: TAS2R38 receptor; test: Calcium flux assay in human PBMC (flow cytometry, Fluo-4 AM); conditions: PAV/AVI
[3] = target: T1, TAS2R38 receptor (Homo sapiens, UniProt P59533, A49P/I296V); test: as above
T1 sequence (P59533 1-333 A49P/I296V): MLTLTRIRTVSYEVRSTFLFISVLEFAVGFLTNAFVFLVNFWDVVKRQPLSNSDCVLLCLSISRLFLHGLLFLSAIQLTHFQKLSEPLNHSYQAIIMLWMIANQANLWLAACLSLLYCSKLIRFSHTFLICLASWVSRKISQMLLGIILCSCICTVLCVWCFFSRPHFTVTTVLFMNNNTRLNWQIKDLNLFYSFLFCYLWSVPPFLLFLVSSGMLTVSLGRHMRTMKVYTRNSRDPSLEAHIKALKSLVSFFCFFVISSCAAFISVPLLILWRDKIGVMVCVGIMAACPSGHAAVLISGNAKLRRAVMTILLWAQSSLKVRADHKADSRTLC

[4] = target: TAS2R38 receptor (Homo sapiens, UniProt P59533, A262V); test: as above; conditions: AVI/AVI, 100 µM AITC
Chain of TAS2R38 receptor (Homo sapiens, UniProt P59533, A262V) (P59533 whole entry A262V): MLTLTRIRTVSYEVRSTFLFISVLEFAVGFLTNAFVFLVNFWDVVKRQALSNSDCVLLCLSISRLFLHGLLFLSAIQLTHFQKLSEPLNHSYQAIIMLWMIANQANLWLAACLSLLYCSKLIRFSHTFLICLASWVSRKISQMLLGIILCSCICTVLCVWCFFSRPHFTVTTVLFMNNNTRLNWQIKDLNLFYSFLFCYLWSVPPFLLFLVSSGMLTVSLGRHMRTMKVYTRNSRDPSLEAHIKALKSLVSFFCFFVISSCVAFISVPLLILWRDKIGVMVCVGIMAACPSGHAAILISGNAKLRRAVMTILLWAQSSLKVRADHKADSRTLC

## C=CCN=C=S [AITC, allyl isothiocyanate]
[1]; 5 min, 100 pg/mL LPS and AITC, PAV/PAV subjects
  p-ERK, p-p38 and p-Akt phosphorylation: upregulation
[1]; PBMC, PAV/PAV group, in contrast to AVI/AVI
  p-ERK1/2 and p-p38 phosphorylation: quick activation (5 min. AITC exposure), followed by dephosphorylation
[1]; PBMC, in dependence of the TAS2R38 genotype
  p-Akt phosphorylation: same activation/inactivation pattern
[2]; lymphocytes, 100 µM AITC
  calcium influx: 21%
[2]; monocytes, 10 µM AITC
  calcium flux (statistically significant): 18%
[3]; PAV/PAV cells, 0.01 µM AITC (increase between 0.01 to 1 µM)
  calcium influx: 28%
[3]; PAV/PAV cells, 1 µM AITC (increase between 0.01 to 1 µM)
  calcium influx: 35%
[3]; PAV/PAV cells, 10 µM AITC (increase between 10-100 µM)
  calcium influx: 45%
[3]; PAV/PAV cells, 100 µM AITC (increase between 10-100 µM)
  calcium influx: 72%
[3]; lymphocytes, PAV/PAV, 1 µM AITC
  calcium influx: 25%
[3]; monocytes, PAV/PAV, 0.01 µM AITC
  calcium flux (statistically significant): 22%
[3]; monocytes, calcium flux
  threshold concentration: 10 nM
[4]; lymphocytes
  calcium influx: 24%
[4]; monocytes
  calcium flux (statistically significant): 20%

Source: paper PMC8103899, “Allyl Isothiocyanate: A TAS2R38 Receptor-Dependent Immune Modulator at the Interface Between Personalized Medicine and Nutrition” (Frontiers in Immunology, 2021)
